From ChEMBL document CHEMBL1955743, “Potent inhibitors of LpxC for the treatment of Gram-negative infections” (J Med Chem, 2012)
≈ marks a conversion by molar mass, not a printed value. Values belong to the compound of their own block, whether it stands above or below them.

How the values were obtained:
[1] = molecular target: T1, UDP-3-O-acyl-N-acetylglucosamine deacetylase (Pseudomonas aeruginosa (strain ATCC 15692 / PAO1 / 1C / PRS 101 / LMG12228), UniProt P47205); experiment: Inhibition of Pseudomonas aeruginosa LpxC using UDP-3-O-(R-hydroxydecanoyl)-N-acetylglucosamine incubated for 30 mins prior to substrate addition measured after 60 mins by mass spectrophotometry
T1 sequence (P47205 whole entry): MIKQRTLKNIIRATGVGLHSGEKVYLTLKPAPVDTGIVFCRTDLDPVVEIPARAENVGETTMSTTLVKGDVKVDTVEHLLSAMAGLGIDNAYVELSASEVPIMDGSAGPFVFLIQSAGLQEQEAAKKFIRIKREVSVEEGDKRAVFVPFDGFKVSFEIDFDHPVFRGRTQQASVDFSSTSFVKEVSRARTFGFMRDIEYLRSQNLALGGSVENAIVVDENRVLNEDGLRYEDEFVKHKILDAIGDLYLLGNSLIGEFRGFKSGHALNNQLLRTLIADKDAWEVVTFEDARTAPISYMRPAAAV

Pseudomonas aeruginosa [2] = experiment: Antibacterial activity against Pseudomonas aeruginosa PAO1 after 16 to 20 hrs by broth microdilution method; assay type: functional
Staphylococcus aureus = experiment: Antibacterial activity against Staphylococcus aureus ATCC 29213 after 16 to 20 hrs by broth microdilution method; assay type: functional
Pseudomonas aeruginosa [3] = experiment: Antibacterial activity against Pseudomonas aeruginosa after 16 to 20 hrs by broth microdilution method; assay type: functional
Klebsiella pneumoniae = experiment: Antibacterial activity against Klebsiella pneumoniae after 16 to 20 hrs by broth microdilution method; assay type: functional
Escherichia coli = experiment: Antibacterial activity against Escherichia coli after 16 to 20 hrs by broth microdilution method; assay type: functional
Klebsiella aerogenes = experiment: Antibacterial activity against Enterobacter aerogenes after 16 to 20 hrs by broth microdilution method; assay type: functional
Citrobacter freundii = experiment: Antibacterial activity against Citrobacter freundii after 16 to 20 hrs by broth microdilution method; assay type: functional
Acinetobacter baumannii = experiment: Antibacterial activity against Acinetobacter baumannii after 16 to 20 hrs by broth microdilution method; assay type: functional
[4] = Clearance in rat at 10 mg/kg, iv; assay type: ADME, organism-based; set-up: dose 10 mg/kg, route intravenous; conditions: in vivo
[5] = Volume of distribution at steady state in rat at 10 mg/kg, iv; assay type: ADME, organism-based; set-up: dose 10 mg/kg, route intravenous; conditions: in vivo, read-out: Vdss
[6] = AUC in rat at 10 mg/kg, iv; assay type: ADME, organism-based; set-up: dose 10 mg/kg, route intravenous; conditions: plasma
[7] = Half life in rat at 10 mg/kg, iv; assay type: ADME, organism-based; set-up: dose 10 mg/kg, route intravenous; conditions: in vivo
Pseudomonas aeruginosa [8] = experiment: Antibacterial activity against Pseudomonas aeruginosa clinical isolates after 16 to 20 hrs by broth microdilution method; assay type: functional
Pseudomonas aeruginosa [9] = experiment: Antibacterial activity against mexAB-OprM,mexXY,MexZ-deficient Pseudomonas aeruginosa PAO280 by broth microdilution technique; assay type: functional
Interstitial collagenase = Interstitial collagenase (Homo sapiens, UniProt P03956); experiment: Inhibition of human MMP1
Chain of Interstitial collagenase (P03956 whole entry): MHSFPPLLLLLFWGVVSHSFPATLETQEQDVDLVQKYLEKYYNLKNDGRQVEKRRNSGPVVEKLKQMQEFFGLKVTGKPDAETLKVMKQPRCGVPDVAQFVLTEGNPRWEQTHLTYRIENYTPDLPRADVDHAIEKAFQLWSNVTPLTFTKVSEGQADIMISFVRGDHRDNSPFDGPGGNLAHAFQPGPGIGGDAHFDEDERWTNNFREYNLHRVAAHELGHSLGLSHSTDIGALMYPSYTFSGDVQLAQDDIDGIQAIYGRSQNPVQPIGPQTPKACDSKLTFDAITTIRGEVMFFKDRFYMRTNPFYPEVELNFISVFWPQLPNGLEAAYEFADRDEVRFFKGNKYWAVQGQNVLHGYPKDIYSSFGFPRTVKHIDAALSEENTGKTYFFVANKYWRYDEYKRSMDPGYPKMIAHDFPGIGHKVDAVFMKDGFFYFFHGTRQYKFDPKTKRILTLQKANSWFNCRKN

Stromelysin-1 = Stromelysin-1 (Homo sapiens, UniProt P08254); experiment: Inhibition of human MMP3
Chain of Stromelysin-1 (P08254 whole entry): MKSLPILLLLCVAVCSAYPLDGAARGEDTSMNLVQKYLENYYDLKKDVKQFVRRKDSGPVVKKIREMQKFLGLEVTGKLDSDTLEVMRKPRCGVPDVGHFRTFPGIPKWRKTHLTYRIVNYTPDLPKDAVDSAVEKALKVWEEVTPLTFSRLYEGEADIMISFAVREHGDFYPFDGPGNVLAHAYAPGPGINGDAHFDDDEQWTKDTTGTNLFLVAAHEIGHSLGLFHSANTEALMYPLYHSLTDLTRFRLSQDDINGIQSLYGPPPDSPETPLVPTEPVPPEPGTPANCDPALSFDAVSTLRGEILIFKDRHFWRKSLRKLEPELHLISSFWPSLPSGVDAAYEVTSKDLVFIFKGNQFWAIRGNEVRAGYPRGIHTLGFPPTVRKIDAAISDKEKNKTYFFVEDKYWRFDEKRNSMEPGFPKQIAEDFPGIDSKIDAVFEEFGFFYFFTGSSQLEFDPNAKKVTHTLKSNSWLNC

Matrilysin = Matrilysin (Homo sapiens, UniProt P09237); experiment: Inhibition of human MMP7
Chain of Matrilysin (P09237 whole entry): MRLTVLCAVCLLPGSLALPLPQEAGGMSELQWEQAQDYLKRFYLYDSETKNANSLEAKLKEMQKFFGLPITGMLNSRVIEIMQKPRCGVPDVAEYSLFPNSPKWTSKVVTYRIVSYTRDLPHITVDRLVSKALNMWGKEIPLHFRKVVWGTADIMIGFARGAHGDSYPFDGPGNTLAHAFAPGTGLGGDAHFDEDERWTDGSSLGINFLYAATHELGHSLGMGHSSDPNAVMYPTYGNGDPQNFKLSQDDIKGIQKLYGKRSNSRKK

Neutrophil collagenase = Neutrophil collagenase (Homo sapiens, UniProt P22894); experiment: Inhibition of human MMP8
Chain of Neutrophil collagenase (P22894 whole entry): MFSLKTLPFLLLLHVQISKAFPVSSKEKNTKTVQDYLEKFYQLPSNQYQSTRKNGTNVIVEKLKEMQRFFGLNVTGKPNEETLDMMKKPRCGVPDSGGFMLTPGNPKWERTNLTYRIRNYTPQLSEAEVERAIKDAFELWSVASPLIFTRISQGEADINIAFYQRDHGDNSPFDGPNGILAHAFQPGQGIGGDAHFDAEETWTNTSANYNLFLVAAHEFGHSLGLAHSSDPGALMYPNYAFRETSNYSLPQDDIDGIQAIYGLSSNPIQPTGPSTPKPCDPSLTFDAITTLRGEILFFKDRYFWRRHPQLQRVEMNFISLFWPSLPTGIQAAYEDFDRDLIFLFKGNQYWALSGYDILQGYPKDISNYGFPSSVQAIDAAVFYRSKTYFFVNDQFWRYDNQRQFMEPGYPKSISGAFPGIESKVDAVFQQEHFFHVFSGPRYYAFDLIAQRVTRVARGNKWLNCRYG

[10] = molecular target: Matrix metalloproteinase-9 (Homo sapiens, UniProt P14780); experiment: Inhibition of human MMP9
Chain of Matrix metalloproteinase-9 (P14780 whole entry): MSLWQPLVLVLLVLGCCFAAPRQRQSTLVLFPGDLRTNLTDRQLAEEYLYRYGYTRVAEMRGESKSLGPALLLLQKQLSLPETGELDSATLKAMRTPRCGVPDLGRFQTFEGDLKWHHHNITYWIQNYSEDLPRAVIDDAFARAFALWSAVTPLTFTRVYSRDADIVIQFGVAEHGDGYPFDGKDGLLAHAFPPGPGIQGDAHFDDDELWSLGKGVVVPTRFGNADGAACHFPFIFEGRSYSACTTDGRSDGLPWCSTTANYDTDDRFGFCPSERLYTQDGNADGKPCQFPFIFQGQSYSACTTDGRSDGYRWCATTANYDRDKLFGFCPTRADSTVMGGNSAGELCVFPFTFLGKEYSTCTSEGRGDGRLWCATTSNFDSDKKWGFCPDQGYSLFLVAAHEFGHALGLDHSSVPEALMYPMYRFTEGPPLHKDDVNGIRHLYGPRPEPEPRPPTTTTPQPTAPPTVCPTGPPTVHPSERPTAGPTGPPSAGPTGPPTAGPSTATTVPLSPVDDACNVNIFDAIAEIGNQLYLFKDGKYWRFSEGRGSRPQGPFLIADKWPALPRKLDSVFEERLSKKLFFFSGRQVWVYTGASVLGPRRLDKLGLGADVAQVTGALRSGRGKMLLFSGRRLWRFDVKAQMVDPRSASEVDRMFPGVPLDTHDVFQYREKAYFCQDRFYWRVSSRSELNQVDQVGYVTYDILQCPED

Stromelysin-2 = Stromelysin-2 (Homo sapiens, UniProt P09238); experiment: Inhibition of human MMP10
[11] = molecular target: Macrophage metalloelastase (Homo sapiens, UniProt P39900); experiment: Inhibition of human MMP12
Chain of Macrophage metalloelastase (P39900 whole entry): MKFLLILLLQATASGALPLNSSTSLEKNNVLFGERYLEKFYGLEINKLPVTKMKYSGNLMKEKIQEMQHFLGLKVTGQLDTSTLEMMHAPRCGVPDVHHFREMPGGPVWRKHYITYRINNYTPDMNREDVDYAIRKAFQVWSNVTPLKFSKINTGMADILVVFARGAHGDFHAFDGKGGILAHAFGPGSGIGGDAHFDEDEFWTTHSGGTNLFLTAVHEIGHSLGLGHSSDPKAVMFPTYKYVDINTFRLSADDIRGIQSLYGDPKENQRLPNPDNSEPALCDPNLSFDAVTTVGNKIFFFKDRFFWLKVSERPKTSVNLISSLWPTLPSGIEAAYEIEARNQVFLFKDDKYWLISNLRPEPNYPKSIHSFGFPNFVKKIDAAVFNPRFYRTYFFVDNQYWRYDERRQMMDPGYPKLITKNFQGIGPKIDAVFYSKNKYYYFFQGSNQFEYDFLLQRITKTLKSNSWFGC

Collagenase 3 = Collagenase 3 (Homo sapiens, UniProt P45452); experiment: Inhibition of human MMP13
[12] = molecular target: Matrix metalloproteinase-14 (Homo sapiens, UniProt P50281); experiment: Inhibition of human MMP14
[13] = molecular target: Matrix metalloproteinase-15 (Homo sapiens, UniProt P51511); experiment: Inhibition of human MMP15
[14] = molecular target: Matrix metalloproteinase-16 (Homo sapiens, UniProt P51512); experiment: Inhibition of human MMP16
[15] = molecular target: Matrix metalloproteinase-20 (Homo sapiens, UniProt O60882); experiment: Inhibition of human MMP20
Chain of Matrix metalloproteinase-20 (O60882 whole entry): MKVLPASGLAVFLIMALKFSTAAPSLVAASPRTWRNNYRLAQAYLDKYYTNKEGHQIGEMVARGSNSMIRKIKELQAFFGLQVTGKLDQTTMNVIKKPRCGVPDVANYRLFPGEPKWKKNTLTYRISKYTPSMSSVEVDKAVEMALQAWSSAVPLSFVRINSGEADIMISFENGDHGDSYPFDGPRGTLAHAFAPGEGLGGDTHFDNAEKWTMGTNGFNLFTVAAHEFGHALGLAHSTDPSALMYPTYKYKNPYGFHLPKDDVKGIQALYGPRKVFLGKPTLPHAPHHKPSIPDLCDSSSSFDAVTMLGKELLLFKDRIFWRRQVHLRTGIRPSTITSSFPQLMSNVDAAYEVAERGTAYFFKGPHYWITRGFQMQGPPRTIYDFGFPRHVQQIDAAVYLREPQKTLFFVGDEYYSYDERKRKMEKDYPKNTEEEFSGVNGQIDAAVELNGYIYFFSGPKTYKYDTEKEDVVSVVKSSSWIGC

[16] = molecular target: Matrix metalloproteinase-24 (Homo sapiens, UniProt Q9Y5R2); experiment: Inhibition of human MMP24
[17] = molecular target: Matrix metalloproteinase-25 (Homo sapiens, UniProt Q9NPA2); experiment: Inhibition of human MMP25
Chain of Matrix metalloproteinase-25 (Q9NPA2 whole entry): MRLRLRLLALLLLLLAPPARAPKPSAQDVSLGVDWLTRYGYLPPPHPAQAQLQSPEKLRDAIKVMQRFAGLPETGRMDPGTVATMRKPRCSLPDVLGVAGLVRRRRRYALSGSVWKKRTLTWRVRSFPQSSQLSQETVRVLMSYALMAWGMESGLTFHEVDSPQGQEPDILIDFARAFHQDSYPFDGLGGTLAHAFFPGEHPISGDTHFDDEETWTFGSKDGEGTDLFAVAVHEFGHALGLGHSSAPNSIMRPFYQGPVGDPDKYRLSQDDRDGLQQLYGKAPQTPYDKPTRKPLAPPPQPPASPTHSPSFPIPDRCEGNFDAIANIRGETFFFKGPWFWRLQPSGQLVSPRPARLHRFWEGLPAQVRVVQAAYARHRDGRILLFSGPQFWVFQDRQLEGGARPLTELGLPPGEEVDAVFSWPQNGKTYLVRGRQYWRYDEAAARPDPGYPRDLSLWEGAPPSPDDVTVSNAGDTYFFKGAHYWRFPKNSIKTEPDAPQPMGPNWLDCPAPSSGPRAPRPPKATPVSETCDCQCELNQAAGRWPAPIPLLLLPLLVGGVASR

[18] = molecular target: Matrix metalloproteinase-26 (Homo sapiens, UniProt Q9NRE1); experiment: Inhibition of human MMP26
Chain of Matrix metalloproteinase-26 (Q9NRE1 whole entry, the tested form may be a part): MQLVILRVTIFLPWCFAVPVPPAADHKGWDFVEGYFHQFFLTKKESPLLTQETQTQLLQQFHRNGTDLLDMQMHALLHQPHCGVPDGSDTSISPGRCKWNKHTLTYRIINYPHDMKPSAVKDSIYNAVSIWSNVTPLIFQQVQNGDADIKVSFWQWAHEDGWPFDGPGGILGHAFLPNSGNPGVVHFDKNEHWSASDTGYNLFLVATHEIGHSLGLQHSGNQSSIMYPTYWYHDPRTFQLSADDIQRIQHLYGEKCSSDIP

[19] = molecular target: Disintegrin and metalloproteinase domain-containing protein 17 (Homo sapiens, UniProt P78536); experiment: Inhibition of human TACE
[20] = molecular target: T2, Sodium-dependent noradrenaline transporter (Homo sapiens, UniProt P23975); experiment: Inhibition of human norepinephrine transporter
T2 sequence (P23975 whole entry): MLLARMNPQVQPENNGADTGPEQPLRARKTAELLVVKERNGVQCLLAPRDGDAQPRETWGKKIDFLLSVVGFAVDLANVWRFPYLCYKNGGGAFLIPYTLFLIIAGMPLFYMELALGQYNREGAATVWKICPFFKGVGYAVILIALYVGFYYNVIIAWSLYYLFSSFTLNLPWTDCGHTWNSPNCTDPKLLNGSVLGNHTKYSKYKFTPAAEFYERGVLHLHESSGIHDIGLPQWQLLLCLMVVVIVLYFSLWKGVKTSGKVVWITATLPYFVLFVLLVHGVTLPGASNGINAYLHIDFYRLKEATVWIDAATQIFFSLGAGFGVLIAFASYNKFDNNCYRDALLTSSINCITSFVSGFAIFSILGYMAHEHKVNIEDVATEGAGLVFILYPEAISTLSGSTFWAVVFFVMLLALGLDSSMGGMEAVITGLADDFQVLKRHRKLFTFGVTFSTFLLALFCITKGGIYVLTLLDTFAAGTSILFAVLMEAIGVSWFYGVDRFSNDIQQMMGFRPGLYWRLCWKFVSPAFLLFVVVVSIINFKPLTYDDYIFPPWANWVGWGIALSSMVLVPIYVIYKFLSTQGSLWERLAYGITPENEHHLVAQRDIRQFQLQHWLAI

[21] = Inhibition of PDE11
[22] = Fraction unbound in human plasma; assay type: ADME, cell-free
Pseudomonas aeruginosa [23] = experiment: Antibacterial activity against penicillin-resistant,quinolone-sensitive Pseudomonas aeruginosa UC12120 clinical isolate infected in sc dosed mouse administered 0.5 and 4 hrs post-infection measured after 24 hrs; assay type: functional
Pseudomonas aeruginosa [24] = experiment: Antibacterial activity against penicillin-resistant,quinolone-sensitive Pseudomonas aeruginosa UC12120 clinical isolate infected in mouse assessed as log reduction in bacterial burden in spleen administered 0.5 and 4 hrs post-infection measured after 24 hrs; assay type: functional
Pseudomonas aeruginosa [25] = experiment: Antibacterial activity against penicillin-resistant,quinolone-sensitive Pseudomonas aeruginosa UC12120 clinical isolate infected in sc dosed mouse assessed as host survival administered 0.5 and 4 hrs post-infection measured after 96 hrs; assay type: functional; conditions: read-out: PD50
[26] = molecular target: T2, Sodium-dependent noradrenaline transporter; conditions: 10 uM

Structure (SMILES): C[C@@](CCc1ccc(-c2ccc(O)cc2)cc1)(C(=O)NO)S(C)(=O)=O
- IC50 [1]: 0.00368 µM
- MIC (Pseudomonas aeruginosa [2]): 0.5 µg/mL (≈ 1.38 µM)
- MIC (Staphylococcus aureus): > 64 µg/mL
- MIC90 (Pseudomonas aeruginosa [3]): 2 µg/mL (≈ 5.5 µM)
- MIC90 (Klebsiella pneumoniae): 16 µg/mL (≈ 44 µM)
- MIC90 (Escherichia coli): 4 µg/mL (≈ 11 µM)
- MIC90 (Klebsiella aerogenes): 16 µg/mL (≈ 44 µM)
- MIC90 (Citrobacter freundii): 8 µg/mL (≈ 22 µM)
- MIC90 (Acinetobacter baumannii): > 64 µg/mL
- clearance [4]: 65 mL/min/kg
- Vd [5]: 2.6 L/kg
- AUC [6]: 2500 ng·h/mL
- half-life [7]: 1.4 h
- MIC50 (Pseudomonas aeruginosa [8]): 1 µg/mL (≈ 2.75 µM)
- MIC90 (Pseudomonas aeruginosa [8]): 4 µg/mL (≈ 11 µM)

Structure (SMILES): C[C@@](CCc1ccc(-c2ccc(C#N)cc2)cc1)(C(=O)NO)S(C)(=O)=O
- IC50 [1]: 0.00064 µM
- MIC (Pseudomonas aeruginosa [2]): 0.125 µg/mL (≈ 0.336 µM)
- MIC (Staphylococcus aureus): > 64 µg/mL
- MIC90 (Pseudomonas aeruginosa [3]): 1 µg/mL (≈ 2.68 µM)
- MIC90 (Klebsiella pneumoniae): 2 µg/mL (≈ 5.37 µM)
- MIC90 (Escherichia coli): 0.5 µg/mL (≈ 1.34 µM)
- MIC90 (Klebsiella aerogenes): 1 µg/mL (≈ 2.68 µM)
- MIC90 (Citrobacter freundii): 2 µg/mL (≈ 5.37 µM)
- MIC90 (Acinetobacter baumannii): 16 µg/mL (≈ 43 µM)
- clearance [4]: 53 mL/min/kg
- Vd [5]: 1.4 L/kg
- AUC [6]: 3100 ng·h/mL
- half-life [7]: 0.6 h

Structure (SMILES): C[C@@](CCc1ccc(-c2ccccc2)cc1)(C(=O)NO)S(C)(=O)=O
- MIC (Pseudomonas aeruginosa [2]): 0.125 µg/mL (≈ 0.36 µM)
- MIC (Staphylococcus aureus): > 64 µg/mL
- MIC (Pseudomonas aeruginosa [9]): 0.008 µg/mL (≈ 0.023 µM)
- MIC90 (Pseudomonas aeruginosa [3]): 4 µg/mL (≈ 11.5 µM)
- MIC90 (Klebsiella pneumoniae): 16 µg/mL (≈ 46.1 µM)
- MIC90 (Escherichia coli): 2 µg/mL (≈ 5.76 µM)
- MIC90 (Klebsiella aerogenes): 4 µg/mL (≈ 11.5 µM)
- MIC90 (Citrobacter freundii): 8 µg/mL (≈ 23 µM)
- MIC90 (Acinetobacter baumannii): 32 µg/mL (≈ 92.1 µM)
- Ki (Interstitial collagenase): > 10 µM
- Ki (Stromelysin-1): > 10 µM
- Ki (Matrilysin): > 10 µM
- Ki (Neutrophil collagenase): > 10 µM
- Ki [10]: > 10 µM
- Ki (Stromelysin-2): > 10 µM
- Ki [11]: 1.35 µM
- Ki (Collagenase 3): 7.73 µM
- Ki [12]: > 10 µM
- Ki [13]: > 10 µM
- Ki [14]: > 10 µM
- Ki [15]: > 10 µM
- Ki [16]: > 10 µM
- Ki [17]: > 10 µM
- Ki [18]: > 10 µM
- Ki [19]: > 10 µM
- IC50 [20]: 0.34 µM
- Ki [20]: 0.25 µM
- IC50 [21]: 18 µM
- clearance [4]: 58 mL/min/kg
- Vd [5]: 2.7 L/kg
- AUC [6]: 2800 ng·h/mL
- half-life [7]: 3.2 h
- fraction unbound [22]: 0.02
- ED50 (Pseudomonas aeruginosa [23]): 35 mg/kg
- FC (Pseudomonas aeruginosa [24]): 6.2
- ED50 (Pseudomonas aeruginosa [25]): 63.4 mg/kg
- MIC50 (Pseudomonas aeruginosa [8]): 0.5 µg/mL (≈ 1.44 µM)
- MIC90 (Pseudomonas aeruginosa [8]): 2 µg/mL (≈ 5.76 µM)
- inhibition [26]: > 50%

Structure (SMILES): C[C@@](CCc1ccc(-c2ccc(OCCCN3CCOCC3)cc2)cc1)(C(=O)NO)S(C)(=O)=O
- MIC (Pseudomonas aeruginosa [2]): 2 µg/mL (≈ 4.08 µM)
- MIC (Staphylococcus aureus): > 64 µg/mL
- MIC90 (Pseudomonas aeruginosa [3]): 4 µg/mL (≈ 8.15 µM)
- MIC90 (Klebsiella pneumoniae): 4 µg/mL (≈ 8.15 µM)
- MIC90 (Escherichia coli): 0.5 µg/mL (≈ 1.02 µM)
- MIC90 (Klebsiella aerogenes): 1 µg/mL (≈ 2.04 µM)
- MIC90 (Citrobacter freundii): 1 µg/mL (≈ 2.04 µM)
- MIC90 (Acinetobacter baumannii): > 64 µg/mL

Structure (SMILES): C[C@@](CCc1ccc(-c2ccc(O)cc2)cc1)(C(=O)O)S(C)(=O)=O
- IC50 [1]: > 0.0925 µM
- MIC (Pseudomonas aeruginosa [2]): > 64 µg/mL
- MIC (Staphylococcus aureus): > 64 µg/mL
- clearance [4]: 15 mL/min/kg
- Vd [5]: 0.4 L/kg
- AUC [6]: 10900 ng·h/mL
- half-life [7]: 0.7 h

Structure (SMILES): C[C@@H](O)[C@H](NC(=O)c1ccc(C#Cc2ccc(CN3CCOCC3)cc2)cc1)C(=O)NO
- MIC (Pseudomonas aeruginosa [2]): 1 µg/mL (≈ 2.29 µM)
- MIC (Staphylococcus aureus): > 64 µg/mL
- MIC90 (Pseudomonas aeruginosa [3]): 4 µg/mL (≈ 9.14 µM)
- MIC90 (Klebsiella pneumoniae): 2 µg/mL (≈ 4.57 µM)
- MIC90 (Escherichia coli): 0.25 µg/mL (≈ 0.571 µM)
- MIC90 (Klebsiella aerogenes): 0.5 µg/mL (≈ 1.14 µM)
- MIC90 (Citrobacter freundii): 0.5 µg/mL (≈ 1.14 µM)
- MIC90 (Acinetobacter baumannii): > 64 µg/mL

More lines, in order of falling MIC (Pseudomonas aeruginosa [2]), values ahead:

- IC50 [1]: 0.00185 µM
- MIC (Pseudomonas aeruginosa [2]): 0.5 µg/mL (≈ 1.23 µM)
- MIC (Staphylococcus aureus): > 64 µg/mL
- MIC90 (Pseudomonas aeruginosa [3]): 1 µg/mL (≈ 2.47 µM)
- MIC90 (Klebsiella pneumoniae): 8 µg/mL (≈ 19.7 µM)
- MIC90 (Escherichia coli): 2 µg/mL (≈ 4.93 µM)
- MIC90 (Klebsiella aerogenes): 4 µg/mL (≈ 9.87 µM)
- MIC90 (Citrobacter freundii): 4 µg/mL (≈ 9.87 µM)
- MIC90 (Acinetobacter baumannii): > 64 µg/mL
Structure (SMILES): C[C@@](CCc1ccc(-c2ccc(C(=O)CO)cc2)cc1)(C(=O)NO)S(C)(=O)=O

- IC50 [1]: 0.00174 µM
- MIC (Pseudomonas aeruginosa [2]): 0.25 µg/mL (≈ 0.684 µM)
- MIC (Staphylococcus aureus): > 64 µg/mL
- MIC90 (Pseudomonas aeruginosa [3]): 1 µg/mL (≈ 2.74 µM)
- MIC90 (Klebsiella pneumoniae): 8 µg/mL (≈ 21.9 µM)
- MIC90 (Escherichia coli): 1 µg/mL (≈ 2.74 µM)
- MIC90 (Klebsiella aerogenes): 2 µg/mL (≈ 5.47 µM)
- MIC90 (Citrobacter freundii): 4 µg/mL (≈ 10.9 µM)
- MIC90 (Acinetobacter baumannii): 32 µg/mL (≈ 87.6 µM)
Structure (SMILES): C[C@@](CCc1ccc(-c2ccc(F)cc2)cc1)(C(=O)NO)S(C)(=O)=O

- IC50 [1]: 0.0012 µM
- MIC (Pseudomonas aeruginosa [2]): 0.125 µg/mL (≈ 0.319 µM)
- MIC (Staphylococcus aureus): > 64 µg/mL
- MIC90 (Pseudomonas aeruginosa [3]): 1 µg/mL (≈ 2.55 µM)
- MIC90 (Klebsiella pneumoniae): 4 µg/mL (≈ 10.2 µM)
- MIC90 (Escherichia coli): 0.5 µg/mL (≈ 1.28 µM)
- MIC90 (Klebsiella aerogenes): 1 µg/mL (≈ 2.55 µM)
- MIC90 (Citrobacter freundii): 2 µg/mL (≈ 5.11 µM)
- MIC90 (Acinetobacter baumannii): > 64 µg/mL
Structure (SMILES): C[C@@](CCc1ccc(-c2ccc3c(c2)OCO3)cc1)(C(=O)NO)S(C)(=O)=O
